Measurements from patent US9133224B2, “Macrocyclic kinase inhibitors” (OSI Pharmaceuticals, LLC, priority 2010, dated 2015).

Molecular target: T1, GST-tagged full-length FAK enzyme (PTK2) (Homo sapiens, UniProt Q05397)
T1 construct: GST-tagged full-length FAK enzyme (PTK2, Invitrogen PV4085); GST; purchased Invitrogen PV4085
Test: Biochemical Omnia Assay (FAK)
Details: not given
Protocol: Biochemical Omnia Assay Protocol
The Omnia Assay (Invitrogen) has been optimized for GST-tagged full-length FAK enzyme (PTK2, Invitrogen PV4085).
All compound concentrations were assayed in duplicate. Initial compound dilutions were prepared at 100× concentration in 100% DMSO from a 10 mM stock solution. Compounds were further diluted 1:25 in assay buffer resulting in a 4× concentrated solution.
In running the assay, 5 μL of the above 4× concentrated compound solution (or 4% DMSO for positive controls) was added to the assay plate followed by 5 μL of a solution containing peptide (40 μM) and ATP (200 μM) in assay buffer. The reaction was initiated by the addition of 10 μL of FAK (50 nM) in assay buffer, or assay buffer alone for negative controls. The increase in fluorescence due to peptide phosphorylation was monitored continuously as a function of time using a Spectramax M5 plate reader (Molecular Devices) equipped with SoftMax Pro 5.2 software.
IC50 values were determined from the slopes of the linear progress curves by non-linear curve-fitting using GraphPad Prism 5 (GraphPad Software, Inc.).

T1 sequence (Q05397 whole entry): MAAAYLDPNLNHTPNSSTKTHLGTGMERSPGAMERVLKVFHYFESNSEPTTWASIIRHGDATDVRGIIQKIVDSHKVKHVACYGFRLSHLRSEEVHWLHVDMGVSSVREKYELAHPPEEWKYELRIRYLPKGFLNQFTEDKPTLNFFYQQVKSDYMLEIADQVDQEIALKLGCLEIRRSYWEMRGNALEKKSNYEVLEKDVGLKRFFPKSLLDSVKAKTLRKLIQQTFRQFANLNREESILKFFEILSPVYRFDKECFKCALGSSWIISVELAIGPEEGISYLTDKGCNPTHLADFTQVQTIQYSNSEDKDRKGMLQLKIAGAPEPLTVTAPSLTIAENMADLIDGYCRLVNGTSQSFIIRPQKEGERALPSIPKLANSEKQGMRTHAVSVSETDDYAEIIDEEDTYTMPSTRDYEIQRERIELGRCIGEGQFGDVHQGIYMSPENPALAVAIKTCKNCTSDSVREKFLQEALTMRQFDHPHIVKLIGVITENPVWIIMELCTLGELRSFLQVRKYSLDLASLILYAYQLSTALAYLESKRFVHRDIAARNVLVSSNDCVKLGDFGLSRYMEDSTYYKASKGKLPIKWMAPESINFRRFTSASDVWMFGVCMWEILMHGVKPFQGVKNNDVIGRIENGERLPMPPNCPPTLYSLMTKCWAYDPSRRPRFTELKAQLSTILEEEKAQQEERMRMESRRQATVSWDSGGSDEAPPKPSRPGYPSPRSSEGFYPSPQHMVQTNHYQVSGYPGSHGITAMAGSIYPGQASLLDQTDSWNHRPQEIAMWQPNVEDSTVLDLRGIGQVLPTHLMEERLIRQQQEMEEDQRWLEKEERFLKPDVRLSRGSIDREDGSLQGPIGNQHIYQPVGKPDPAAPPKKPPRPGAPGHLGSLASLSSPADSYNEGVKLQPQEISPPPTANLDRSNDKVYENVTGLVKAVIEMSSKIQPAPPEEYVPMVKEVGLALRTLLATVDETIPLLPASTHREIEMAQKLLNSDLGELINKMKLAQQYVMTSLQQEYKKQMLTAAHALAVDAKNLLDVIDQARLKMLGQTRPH

Row | Compound | IC50 [nM]
1 | CCOP1(=O)Cc2ccc(c(OC)c2)Nc2ncc(C(F)(F)F)c(n2)Nc2ccc(nc2C(=O)NC)-c2cnn(c2)CCCO1 (single isomer, unassigned) [Example 6B] | < 400
2 | CCOP1(=O)Cc2ccc(c(OC)c2)Nc2ncc(C(F)(F)F)c(n2)Nc2ccc(nc2C(=O)NC)-c2cn(nc2C)CC2(COC2)CO1 (single isomer, unassigned) [Example 60A] | < 400
3 | CCOP1(=O)Cc2ccc(c(OC)c2)Nc2ncc(C(F)(F)F)c(n2)Nc2ccc(c(OC)c2C(=O)NC)-c2cnn(c2)CCCO1 (racemic) [Example 30] | < 400
4 | CCNC(=O)c1nc2ccc1Nc1nc(ncc1C(F)(F)F)Nc1ccc(cc1OC)CP(=O)(OCC)OCC1(COC1)Cn1cc-2cn1 (racemic) [Example 45] | < 400
5 | CCOP1(=O)Cc2ccc(c(OC)c2)Nc2ncc(C(F)(F)F)c(n2)Nc2ccc(nc2C(=O)NC)-c2cn(nc2C#N)CCCO1 (racemic) [Example 52] | < 400
6 | CCOP1(=O)Cc2ccc(cc2)Nc2ncc(C(F)(F)F)c(n2)Nc2ccc(cc2C(=O)NC)-c2cnn(c2)CCCO1 (racemic) [Example 8] | < 400
7 | CCOP1(=O)Cc2ccc(c(OC)c2Cl)Nc2ncc(C(F)(F)F)c(n2)Nc2ccc(nc2C(=O)NC)-c2cnn(c2)CC2(COC2)CO1 (racemic) [Example 55] | < 400
8 | CCOP1(=O)Cc2ccc(c(OC)c2)Nc2ncc(C(F)(F)F)c(n2)Nc2ccc(nc2C(=O)NC)-c2cn(nc2OC)CCCO1 (single isomer, unassigned) [Example 48A] | < 400
9 | CCNC(=O)c1cc2ccc1Nc1nc(ncc1C(F)(F)F)Nc1ccc(cc1)CP(=O)(OCC)OCCCn1cc-2cn1 (racemic) [Example 10] | < 400
10 | CCOP1(=O)Cc2ccc(c(OC)c2)Nc2ncc(C(F)(F)F)c(n2)Nc2ccc(c(C)c2C(=O)NC)-c2cnn(c2)CCCO1 (racemic) [Example 29] | < 400
11 | CCOP1(=O)Cc2cc(OC)c(cc2Cl)Nc2ncc(C(F)(F)F)c(n2)Nc2ccc(nc2C(=O)NC)-c2cnn(c2)CC2(COC2)CO1 (single isomer, unassigned) [Example 57A] | < 400
12 | CCOP1(=O)Cc2ccc(c(OC)c2Cl)Nc2ncc(C(F)(F)F)c(n2)Nc2ccc(nc2C(=O)NC)-c2cnn(c2)CCCO1 (single isomer, unassigned) [Example 54A] | < 400
13 | CCOP1(=O)Cc2ccc(c(OC)c2)Nc2ncc(C(F)(F)F)c(n2)Nc2ccc(c(F)c2C(=O)NC)-c2cnn(c2)CCCO1 (racemic) [Example 27] | < 400

Molecular target: T2, FAK (Homo sapiens, UniProt Q05397)
T2 construct: endogenous in cells; host or cells: U87MG glioblastoma cells (ATCC HTB-14)
Test: Cell-based capture ELISA for inhibition of FAK autophosphorylation [pY397] in U87MG cells
Details: 50% (v/v) human plasma, mean IC50, read-out: FAK Activity Mechanistic (U87MG) HP
Protocol: Cell-Based Assays for Inhibition of FAK Autophosphorylation: MiaPaCa2 and U87MG
The ability of compounds to inhibit FAK autophosphorylation was determined in a cell-based capture ELISA assay using U87MG glioblastoma cells (ATCC, Cat # HTB-14) and the FAK [pY397]ELISA kit from Invitrogen (KHO0441). The assay determines the ability of compounds to block endogenous autophosphorylation of FAK stimulated by fibronectin. Cells plated on fibronectin coated 96-well plate were incubated with compounds at various concentrations in the complete growth medium for 2 h. Cell lysates were then prepared and FAK protein was captured onto a FAK antibody-coated 96-well ELISA plate. The phosphotyrosine content of FAK protein was then monitored by quantitation of degree of binding of an antibody that recognizes only the phosphorylated FAK at Y397 within the captured protein.
Reagents Provided in Biosource FAK [pY397]
Cultures of U87MG cells growing in MEM (Earles) containing non-essential amino acids, sodium pyruvate (1 mM), […] (1%) and 10% fetal bovine serum were detached by trypsin-EDTA and suspended in cell growth medium. Cells were then plated onto fibronectin (600 ng/well)-coated 96-well flat bottom plates at 1.7×10^4 cells per well in 60 uL cell growth medium and incubated overnight at 37° C. in a CO2 incubator.
Compound dilutions were prepared from 10 mM DMSO stocks by dilution in cell growth medium, the final concentration of DMSO in the assay being 0.6%. […] The cells were then incubated with compounds at 37° C. for 2 h. The medium was removed by aspiration and cells were lysed by addition of 20 uL of ice-cold cell lysis buffer per well. The plates were kept on ice for 20 min and 50 uL of standard diluent was added to each well. 50 uL of cell lysate from each well was transferred to respective wells in an assay plate and 50 uL of detection antibody was added to all wells except H1-H6 which were no antibody control wells. Capture assay plates were incubated overnight in a cold room.
Following incubation of the cell lysates and detection antibodies in the ELISA plate, the wells were washed 4 times with 120 uL of wash buffer (1×), then 100 uL of diluted HRP conjugated antibody (1:100 dil in diluent) was added to each well, and the plate was incubated at RT for 30 min. The wells were then washed for 4 times with 120 uL of wash buffer (1×) and 100 uL of chromogen was added to each well and incubated in the dark at RT for 5-10 min. 100 uL of stop solution was added to each well and the absorbance measured at 450 nm, 0.1 s.
Comparison of the assay signals obtained in the presence of compound with those of positive and negative controls (cells with no compound and no detection antibody being added), allows degree of inhibition of phospho-FAK [Y397] to be determined over a range of compound concentrations. […] The assay as described above was modified to determine the effect of inclusion of 50% (v/v) mouse or human plasma. In this assay, the compound plate was prepared as 2× concentration in 100 uL of 100% mouse or human plasma, and 60 uL of this was added to 60 uL of culture medium and incubated at 37° C. incubator for 2 h. The rest of the assay was carried out as described above.

T2 sequence (Q05397 whole entry): as above

Row | Compound | IC50 [nM]
14 | CCOP1(=O)Cc2ccc(c(OC)c2)Nc2ncc(C(F)(F)F)c(n2)Nc2ccc(nc2C(=O)NC)-c2cnn(c2)CCCO1 (single isomer, unassigned) [Example 6B] | < 400
15 | CCOP1(=O)Cc2ccc(c(OC)c2)Nc2ncc(C(F)(F)F)c(n2)Nc2ccc(nc2C(=O)NC)-c2cn(nc2C)CC2(COC2)CO1 (single isomer, unassigned) [Example 60A] | < 400
16 | CCNC(=O)c1nc2ccc1Nc1nc(ncc1C(F)(F)F)Nc1ccc(cc1OC)CP(=O)(OCC)OCC1(COC1)Cn1cc-2cn1 (racemic) [Example 45] | < 400
17 | CCOP1(=O)Cc2ccc(cc2)Nc2ncc(C(F)(F)F)c(n2)Nc2ccc(cc2C(=O)NC)-c2cnn(c2)CCCO1 (racemic) [Example 8] | < 400
18 | CCOP1(=O)Cc2ccc(c(OC)c2Cl)Nc2ncc(C(F)(F)F)c(n2)Nc2ccc(nc2C(=O)NC)-c2cnn(c2)CC2(COC2)CO1 (racemic) [Example 55] | < 400
19 | CCOP1(=O)Cc2ccc(c(OC)c2)Nc2ncc(C(F)(F)F)c(n2)Nc2ccc(nc2C(=O)NC)-c2cn(nc2OC)CCCO1 (single isomer, unassigned) [Example 48A] | > 4000
20 | CCNC(=O)c1cc2ccc1Nc1nc(ncc1C(F)(F)F)Nc1ccc(cc1)CP(=O)(OCC)OCCCn1cc-2cn1 (racemic) [Example 10] | > 4000
21 | CCOP1(=O)Cc2cc(OC)c(cc2Cl)Nc2ncc(C(F)(F)F)c(n2)Nc2ccc(nc2C(=O)NC)-c2cnn(c2)CC2(COC2)CO1 (single isomer, unassigned) [Example 57A] | > 4000
22 | CCOP1(=O)Cc2ccc(c(OC)c2Cl)Nc2ncc(C(F)(F)F)c(n2)Nc2ccc(nc2C(=O)NC)-c2cnn(c2)CCCO1 (single isomer, unassigned) [Example 54A] | > 4000

Same assay, conditions: 50% (v/v) mouse plasma, mean IC50, read-out: FAK Activity Mechanistic (U87MG) MP

Row | Compound | IC50 [nM]
23 | CCOP1(=O)Cc2ccc(c(OC)c2)Nc2ncc(C(F)(F)F)c(n2)Nc2ccc(c(OC)c2C(=O)NC)-c2cnn(c2)CCCO1 (racemic) [Example 30] | 400 to 4000
24 | CCOP1(=O)Cc2ccc(c(OC)c2Cl)Nc2ncc(C(F)(F)F)c(n2)Nc2ccc(nc2C(=O)NC)-c2cnn(c2)CC2(COC2)CO1 (racemic) [Example 55] | 400 to 4000
25 | CCOP1(=O)Cc2ccc(c(OC)c2)Nc2ncc(C(F)(F)F)c(n2)Nc2ccc(nc2C(=O)NC)-c2cn(nc2OC)CCCO1 (single isomer, unassigned) [Example 48A] | 400 to 4000
26 | CCOP1(=O)Cc2ccc(c(OC)c2)Nc2ncc(C(F)(F)F)c(n2)Nc2ccc(c(C)c2C(=O)NC)-c2cnn(c2)CCCO1 (racemic) [Example 29] | > 4000
27 | CCOP1(=O)Cc2cc(OC)c(cc2Cl)Nc2ncc(C(F)(F)F)c(n2)Nc2ccc(nc2C(=O)NC)-c2cnn(c2)CC2(COC2)CO1 (single isomer, unassigned) [Example 57A] | 400 to 4000
28 | CCOP1(=O)Cc2ccc(c(OC)c2)Nc2ncc(C(F)(F)F)c(n2)Nc2ccc(c(F)c2C(=O)NC)-c2cnn(c2)CCCO1 (racemic) [Example 27] | 400 to 4000

Same assay, conditions: no plasma present, mean IC50, read-out: FAK Activity Mechanistic (U87MG) NP

Row | Compound | IC50 [nM]
29 | CCOP1(=O)Cc2ccc(c(OC)c2)Nc2ncc(C(F)(F)F)c(n2)Nc2ccc(nc2C(=O)NC)-c2cnn(c2)CCCO1 (single isomer, unassigned) [Example 6B] | < 400
30 | CCOP1(=O)Cc2ccc(c(OC)c2)Nc2ncc(C(F)(F)F)c(n2)Nc2ccc(nc2C(=O)NC)-c2cn(nc2C)CC2(COC2)CO1 (single isomer, unassigned) [Example 60A] | < 400
31 | CCOP1(=O)Cc2ccc(c(OC)c2)Nc2ncc(C(F)(F)F)c(n2)Nc2ccc(c(OC)c2C(=O)NC)-c2cnn(c2)CCCO1 (racemic) [Example 30] | < 400
32 | CCNC(=O)c1nc2ccc1Nc1nc(ncc1C(F)(F)F)Nc1ccc(cc1OC)CP(=O)(OCC)OCC1(COC1)Cn1cc-2cn1 (racemic) [Example 45] | < 400
33 | CCOP1(=O)Cc2ccc(c(OC)c2)Nc2ncc(C(F)(F)F)c(n2)Nc2ccc(nc2C(=O)NC)-c2cn(nc2C#N)CCCO1 (racemic) [Example 52] | < 400
34 | CCOP1(=O)Cc2ccc(cc2)Nc2ncc(C(F)(F)F)c(n2)Nc2ccc(cc2C(=O)NC)-c2cnn(c2)CCCO1 (racemic) [Example 8] | < 400
35 | CCOP1(=O)Cc2ccc(c(OC)c2Cl)Nc2ncc(C(F)(F)F)c(n2)Nc2ccc(nc2C(=O)NC)-c2cnn(c2)CC2(COC2)CO1 (racemic) [Example 55] | < 400
36 | CCOP1(=O)Cc2ccc(c(OC)c2)Nc2ncc(C(F)(F)F)c(n2)Nc2ccc(nc2C(=O)NC)-c2cn(nc2OC)CCCO1 (single isomer, unassigned) [Example 48A] | < 400
37 | CCNC(=O)c1cc2ccc1Nc1nc(ncc1C(F)(F)F)Nc1ccc(cc1)CP(=O)(OCC)OCCCn1cc-2cn1 (racemic) [Example 10] | 400 to 4000
38 | CCOP1(=O)Cc2ccc(c(OC)c2)Nc2ncc(C(F)(F)F)c(n2)Nc2ccc(c(C)c2C(=O)NC)-c2cnn(c2)CCCO1 (racemic) [Example 29] | 400 to 4000
39 | CCOP1(=O)Cc2cc(OC)c(cc2Cl)Nc2ncc(C(F)(F)F)c(n2)Nc2ccc(nc2C(=O)NC)-c2cnn(c2)CC2(COC2)CO1 (single isomer, unassigned) [Example 57A] | < 400
40 | CCOP1(=O)Cc2ccc(c(OC)c2Cl)Nc2ncc(C(F)(F)F)c(n2)Nc2ccc(nc2C(=O)NC)-c2cnn(c2)CCCO1 (single isomer, unassigned) [Example 54A] | 400 to 4000
41 | CCOP1(=O)Cc2ccc(c(OC)c2)Nc2ncc(C(F)(F)F)c(n2)Nc2ccc(c(F)c2C(=O)NC)-c2cnn(c2)CCCO1 (racemic) [Example 27] | < 400
